Experimental data: PubChem BioAssay (NCI)
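Step 1: Grow cells in 96-well plates. Step 2: Expose to compound for 48 hours at 5 concentrations. Step 3: Interpolate endpoints linearly; if unreached, use highest concentration. At the TGI there is no net growth.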

Key:
Experiment in all cases: growth of human tumour cells (NCI), 48 h
[1] = test system: CAKI-1 renal
[2] = test system: HCC-2998 colon
[3] = test system: K-562 leukemia
[4] = test system: LOX IMVI melanoma
[5] = test system: M14 melanoma
[6] = test system: NCI-H226 lung
[7] = test system: RPMI-8226 leukemia
[8] = test system: SF-295 CNS
[9] = test system: T-47D breast
[10] = test system: UO-31 renal
[11] = test system: SF-539 CNS

| SMILES | TGI [1] [µM] | TGI [2] [µM] | TGI [3] [µM] | TGI [4] [µM] | TGI [5] [µM] | TGI [6] [µM] | TGI [7] [µM] | TGI [8] [µM] | TGI [9] [µM] | TGI [10] [µM] | TGI [11] [µM] |
| --- | --- | --- | --- | --- | --- | --- | --- | --- | --- | --- | --- |
| C=CCON(C(=O)OC(C)(C)C)C(C)(C)C | > 100 | > 100 | > 100 | > 100 | > 100 | > 100 | > 100 | > 100 | > 100 | > 100 |  |
| N#Cc1c(NC(=O)C(F)(F)F)sc2c3c(=O)c4ccccc4c(=O)c=3oc3ccccc3c12 | 31.4 | 31 | 75.3 | > 59.1 | > 61.7 | 21.2 | 56.2 | 35.8 | 59.3 | 46.4 | 32.1 |
| Cc1ccc(OCC2OC(n3cnc4c(Cl)nc(Nc5cc(Cl)cc(Cl)c5)nc43)CC2Oc2ccc(C)cc2)cc1 (centres undefined) | > 100 | > 100 | > 100 | > 100 | > 100 | > 100 | > 100 | > 100 | > 100 | > 100 | > 100 |
| Cc1[nH]n(-c2nc3c(c(=O)[nH]2)CCCC3)c(=O)c1CCO | > 100 | > 100 | > 100 | > 100 | > 100 | > 100 |  | > 100 | > 100 | > 100 | > 100 |
| c1cc(-c2ccc(-c3ccsc3)s2)cs1 | > 100 | > 100 | > 100 | > 100 | > 100 | 98.7 | > 100 | > 100 | > 100 | 98.4 | 89.8 |
| N#Cc1sc2nc3ccccc3n2c1N | > 100 | > 100 |  | > 100 | > 100 | > 100 | > 100 | > 100 | > 100 | > 100 | > 100 |
| CCOC(=O)c1c(NC(=O)c2ccccc2)c(C#N)c2n1CCCCC2 | > 100 | > 100 | > 100 | > 100 | > 100 | > 100 | > 100 | > 100 | > 100 | > 100 |  |
| O=C1CC(O)c2cscc21 (centres undefined) | > 100 | > 100 | > 100 | > 100 |  | > 100 | > 100 | > 100 | > 100 |  | > 100 |
| Cc1ccc(S[C@@](C=O)(NC(=O)OCc2ccccc2)C(F)(F)F)cc1 | 63.8 | > 100 | > 100 | 48.8 | 78.6 | 40.2 | 57.2 | > 100 | 71 | 36.6 | 70.9 |
| COc1ccccc1C1c2cc3c(cc2OC2(OC)COC(=O)C12)OCO3 (centres undefined) | > 100 | > 63.8 | > 45.6 | 67.1 | 43.3 | > 87.5 | 28.3 | 63.9 | > 100 | 65.6 | 33.4 |
